The source of these data is ChEMBL document CHEMBL1125617, “N6-substituted adenosine receptor agonists: potential antihypertensive agents” (J Med Chem, 1991).

SMILES strings stand for the structures. Bounds are passed on as bounds.

For one assay, the target named is T1, Adenosine receptor A1 (Rattus norvegicus, UniProt P25099).
T1 sequence (P25099 whole entry): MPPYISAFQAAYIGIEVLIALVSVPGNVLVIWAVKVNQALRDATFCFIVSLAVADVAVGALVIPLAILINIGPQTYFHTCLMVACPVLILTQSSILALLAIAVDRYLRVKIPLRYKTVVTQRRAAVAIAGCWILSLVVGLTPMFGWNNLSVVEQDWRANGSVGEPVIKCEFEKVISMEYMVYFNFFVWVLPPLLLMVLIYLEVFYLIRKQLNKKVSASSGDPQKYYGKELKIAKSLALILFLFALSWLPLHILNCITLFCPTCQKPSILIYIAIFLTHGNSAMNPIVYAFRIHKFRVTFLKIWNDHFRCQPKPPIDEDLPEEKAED
The assay is described as follows: Binding affinity towards adenosine A1 receptor.

For another assay, the target named is Adenosine A2 receptor (Rattus norvegicus, UniProt P29276+P30543). Briefly: Binding affinity towards adenosine A2 receptor. The assay is classed as protein assay.
For assay [1], the system named is Rattus norvegicus. Briefly: Antihypertensive activity measured as change in blood pressure for a 10-h after 10 mg/kg oral dose in rat. The format is functional.
The subject of assay [2] is Rattus norvegicus. The assay is described as follows: Antihypertensive activity measured as change in heart rate was measured for a 10-h after 10 mg/kg oral dose. The assay is classed as functional.
For assay [3], the target named is Adenosine receptors; A1 & A2 (Rattus norvegicus) (UniProt P29276+P25099+P30543). Briefly: Ratio of Ki values of A1 adenosine and A2 adenosine receptor. The assay is classed as protein assay.

On to `COc1ccc2c(c1)CCC2Nc1ncnc2c1ncn2[C@@H]1O[C@H](CO)[C@@H](O)[C@H]1O` (single isomer, unassigned; isomer b) [listing 1 of 2 here], for which the results for the Ki at Adenosine receptor A1 and at Adenosine A2 receptor were 41.7 nM and 1450 nM, respectively. The results for the Change in the assay with Rattus norvegicus [1] (10 mg/kg) and in the assay with Rattus norvegicus [2] (10 mg/kg) were -25% and -11%, respectively.
`OC[C@H]1O[C@@H](n2cnc3c(NC4CCc5ccccc54)ncnc32)[C@H](O)[C@@H]1O` (stereo not given in full): the Ratio in assay [3] was determined as 24.5. Moreover, the Ki worked out at 45.8 nM on Adenosine receptor A1 and 1120 nM at Adenosine A2 receptor. The figures for the Change with Rattus norvegicus [1] and in the assay on Rattus norvegicus [2] were -22% and less than 10%, respectively.
Taken in the same sequence, the figures for `OC[C@H]1O[C@@H](n2cnc3c(NC4CCCCc5ccccc54)ncnc32)[C@H](O)[C@@H]1O` (stereo not given in full) were 4.27, 17.8 nM, 76.9 nM, -42% and 28%.
Taken in the same sequence, the figures for `OC[C@H]1O[C@@H](n2cnc3c(NC4CCc5cc(Cl)ccc54)ncnc32)[C@H](O)[C@@H]1O` (stereo not given in full) were 44, 41 nM, 1808 nM, -24% and -24%.
In the case of `COc1ccc2c(c1)CCC2Nc1ncnc2c1ncn2[C@@H]1O[C@H](CO)[C@@H](O)[C@H]1O` (stereo in doubt; 4) [listing 1 of 2 here], in assay [3], the Ratio worked out at 73.
In the case of `OC[C@H]1O[C@@H](n2cnc3c(NC4CCCc5c(O)cccc54)ncnc32)[C@H](O)[C@@H]1O` (stereo not given in full), the Ratio in assay [3] was 8.6. Besides, the figures for the Ki at Adenosine receptor A1 and at Adenosine A2 receptor were 20.4 nM and 175 nM, respectively. The Change in the assay on Rattus norvegicus [1] and with Rattus norvegicus [2] was less than 10% throughout.
On to `OC[C@H]1O[C@@H](n2cnc3c(N[C@@H]4CCc5ccccc54)ncnc32)[C@H](O)[C@@H]1O`, for which, in assay [3], the Ratio was determined as 18.6. Moreover, the Ki on Adenosine receptor A1 was 22.2 nM; on Adenosine A2 receptor it was 412 nM. Besides, the Change in the assay on Rattus norvegicus [1] was -37%; in the assay with Rattus norvegicus [2], -18%.
As to `COc1ccc2c(c1)C(Nc1ncnc3c1ncn3[C@@H]1O[C@H](CO)[C@@H](O)[C@H]1O)CCC2` (single isomer, unassigned; isomer A) [listing 1 of 2 here], the Ratio in assay [3] is 13.2.
With `OC[C@H]1OC(n2cnc3c(NC4CCc5ccccc5C4)ncnc32)[C@H](O)[C@@H]1O` (stereo not given in full), the Ratio in assay [3] came to 40.3. In addition, the Ki at Adenosine receptor A1 came to 8.39 nM; at Adenosine A2 receptor, 339 nM. Moreover, the Change in the assay with Rattus norvegicus [1] is on record as -47%; in the assay with Rattus norvegicus [2], -44%.
Taken in the same sequence, the figures for `OC[C@H]1O[C@@H](n2cnc3c(NC4CCOc5ccccc54)ncnc32)[C@H](O)[C@@H]1O` (stereo not given in full) were 5.3, 63.5 nM, 339 nM, -21% and 21%.
The corresponding values for `OC[C@H]1O[C@@H](n2cnc3c(N[C@H]4CCc5ccccc54)ncnc32)[C@H](O)[C@@H]1O` are 74, 310 nM, 23000 nM, less than 10% and less than 10%.
For the molecule `CC(C)COc1ccc2c(c1)CCC2Nc1ncnc2c1ncn2[C@@H]1O[C@H](CO)[C@@H](O)[C@H]1O` (stereo not given in full), the Ratio in assay [3] was found to be 323. The inhibitory constant (Ki) at Adenosine receptor A1 came out at 28 nM; at Adenosine A2 receptor it was 9038 nM. Further, the values for the Change in the assay with Rattus norvegicus [1] and with Rattus norvegicus [2] were -39% and -21%, respectively.
Taken in the same sequence, the figures for `OC[C@H]1OC(n2cnc3c(NCC4=CCCCc5ccccc54)ncnc32)[C@H](O)[C@@H]1O` (stereo not given in full) were 4.5, 404 nM, 1821 nM, less than 10% and less than 10%.
Taken in the same sequence, the figures for `OC[C@H]1O[C@@H](n2cnc3c(NCC4=CCCc5ccccc54)ncnc32)[C@H](O)[C@@H]1O` were 0.53, 99.8 nM, 53.4 nM, -39% and 16%.
Taken in the same sequence, the figures for `OC[C@H]1O[C@@H](n2cnc3c(NCC4(O)CCCCc5ccccc54)ncnc32)[C@H](O)[C@@H]1O` (stereo not given in full) were 9.8, 275 nM, 2705 nM, -14% and less than 10%.
Turning to `OC[C@H]1O[C@@H](n2cnc3c(NC4CCCc5ccc(O)cc54)ncnc32)[C@H](O)[C@@H]1O` (stereo not given in full), the Ratio in assay [3] turned out to be 4. Also, the Ki at Adenosine receptor A1 came out at 40.1 nM; on Adenosine A2 receptor it was 160 nM. The figures for the Change with Rattus norvegicus [1] and in the assay on Rattus norvegicus [2] were -17% and less than 10%, respectively.
The corresponding values for `OC[C@H]1O[C@@H](n2cnc3c(NC4CCc5cc(O)ccc54)ncnc32)[C@H](O)[C@@H]1O` (stereo not given in full) are 18.2, 42.3 nM, 769 nM, -17% and -11%.
The corresponding values for `OC[C@H]1OC(n2cnc3c(NCC4=CCc5ccccc54)ncnc32)[C@H](O)[C@@H]1O` (stereo not given in full) are 1.36, 32.4 nM, 44.2 nM, -32% and 26%.
Taken in the same sequence, the figures for `OC[C@H]1O[C@@H](n2cnc3c(NCC4CCc5ccccc54)ncnc32)[C@H](O)[C@@H]1O` (stereo not given in full) were 12.9, 5.19 nM, 66.7 nM, -40% and -15%.
On to `COc1ccc2c(c1)C(Nc1ncnc3c1ncn3[C@@H]1O[C@H](CO)[C@@H](O)[C@H]1O)CCC2` (stereo in doubt; 31) [listing 1 of 2 here], for which the Ki at Adenosine receptor A1 is 22.9 nM; on Adenosine A2 receptor it was 619 nM. The results for the Change with Rattus norvegicus [1] (10 mg/kg) and with Rattus norvegicus [2] (10 mg/kg) were -56% and -40%, respectively.
Turning to `COc1ccc2c(c1)CCC2Nc1ncnc2c1ncn2[C@@H]1O[C@H](CO)[C@@H](O)[C@H]1O` (single isomer, unassigned; isomer A) [listing 1 of 2 here], the Ki at Adenosine receptor A1 is 236 nM; on Adenosine A2 receptor, 28260 nM. For the same molecule, the Change in the assay on Rattus norvegicus [1] (10 mg/kg) and in the assay with Rattus norvegicus [2] (10 mg/kg) was less than 10% in each case.
Regarding `COc1ccc2c(c1)CCC2Nc1ncnc2c1ncn2[C@@H]1O[C@H](CO)[C@@H](O)[C@H]1O` (stereo in doubt; 4) [listing 2 of 2 here], the Ki on Adenosine receptor A1 was determined as 59.5 nM; at Adenosine A2 receptor, 4350 nM. The Change in the assay with Rattus norvegicus [1] (10 mg/kg) is -40%; in the assay on Rattus norvegicus [2] (10 mg/kg) it was -33%.
Taken in the same sequence, the figures for `CCCCOc1ccc2c(c1)CCC2Nc1ncnc2c1ncn2[C@@H]1O[C@H](CO)[C@@H](O)[C@H]1O` (single isomer, unassigned; isomer A) [listing 1 of 2 here] were 43.6 nM, 103200 nM, less than 10% and 15%.
For the molecule `COc1ccc2c(c1)C(Nc1ncnc3c1ncn3[C@@H]1O[C@H](CO)[C@@H](O)[C@H]1O)CCC2` (single isomer, unassigned; isomer B) [listing 1 of 2 here], the Ratio in assay [3] is 22.7.
With `CCCCOc1ccc2c(c1)CCC2Nc1ncnc2c1ncn2[C@@H]1O[C@H](CO)[C@@H](O)[C@H]1O` (stereo in doubt; 15) [listing 1 of 2 here], in assay [3], the Ratio worked out at 126.
Regarding `COc1ccc2c(c1)C(Nc1ncnc3c1ncn3[C@@H]1O[C@H](CO)[C@@H](O)[C@H]1O)CCC2` (stereo in doubt; 31) [listing 2 of 2 here], the Ratio in assay [3] is 27.
In the case of `COc1ccc2c(c1)C(Nc1ncnc3c1ncn3[C@@H]1O[C@H](CO)[C@@H](O)[C@H]1O)CCC2` (single isomer, unassigned; isomer A) [listing 2 of 2 here], the Ki at Adenosine receptor A1 worked out at 2580 nM; on Adenosine A2 receptor it was 34060 nM. The Change in the assay with Rattus norvegicus [1] (10 mg/kg) and in the assay with Rattus norvegicus [2] (10 mg/kg) was less than 10% throughout.
In the case of `COc1ccc2c(c1)C(Nc1ncnc3c1ncn3[C@@H]1O[C@H](CO)[C@@H](O)[C@H]1O)CCC2` (single isomer, unassigned; isomer B) [listing 2 of 2 here], the Ki at Adenosine receptor A1 was determined as 12.1 nM; at Adenosine A2 receptor it was 274 nM. Moreover, the Change is given as -44% with Rattus norvegicus [1] (10 mg/kg) and 37% with Rattus norvegicus [2] (10 mg/kg).
In the case of `COc1ccc2c(c1)CCC2Nc1ncnc2c1ncn2[C@@H]1O[C@H](CO)[C@@H](O)[C@H]1O` (single isomer, unassigned; isomer b) [listing 2 of 2 here], the Ratio in assay [3] came out at 34.8.
As for `COc1ccc2c(c1)CCC2Nc1ncnc2c1ncn2[C@@H]1O[C@H](CO)[C@@H](O)[C@H]1O` (single isomer, unassigned; isomer A) [listing 2 of 2 here], the Ratio in assay [3] amounted to 120.
For `CCCCOc1ccc2c(c1)CCC2Nc1ncnc2c1ncn2[C@@H]1O[C@H](CO)[C@@H](O)[C@H]1O` (stereo in doubt; 15) [listing 2 of 2 here], the Ki at Adenosine receptor A1 came out at 46.9 nM; on Adenosine A2 receptor, 5922 nM. Also, the Change was -46% in the assay on Rattus norvegicus [1] (10 mg/kg) and -28% in the assay on Rattus norvegicus [2] (10 mg/kg).
The corresponding values for `CCCCOc1ccc2c(c1)CCC2Nc1ncnc2c1ncn2[C@@H]1O[C@H](CO)[C@@H](O)[C@H]1O` (single isomer, unassigned; isomer B) [listing 1 of 2 here] are 48.3 nM, 3946 nM, -31% and -13%.
For `CCCCOc1ccc2c(c1)CCC2Nc1ncnc2c1ncn2[C@@H]1O[C@H](CO)[C@@H](O)[C@H]1O` (single isomer, unassigned; isomer B) [listing 2 of 2 here], the Ratio in assay [3] was found to be 81.7.
Regarding `CCCCOc1ccc2c(c1)CCC2Nc1ncnc2c1ncn2[C@@H]1O[C@H](CO)[C@@H](O)[C@H]1O` (single isomer, unassigned; isomer A) [listing 2 of 2 here], the Ratio in assay [3] is 2370.

For orientation: Ki means a dissociation constant, usually derived from enzyme kinetics or from competition with a known ligand. High values mean lower affinity, low ones higher affinity.
